Test results taken from patent publication US9161981B2 (LG LIFE SCIENCES, LTD., priority 2010, dated 2015).

Conditions: phenol between MCT oil phase and saline phase; oil and saline 19:1; HPLC
From the text: The partition coefficient P is a value calculated by dividing a concentration of preservative in the oil phase by a concentration of preservative in the water phase.

Question: Which logP does the source give for Oc1ccccc1 [phenol] here?
Answer: 1.1
